Measurements published in patent publication US20240130367A1, “PLANT GROWTH PROMOTERS” (University of Durham, priority 2020, published 2024).
Counter-ions that a name gives are not always drawn.

Test system: Arabidopsis thaliana wild-type
Test: Hypocotyl growth assay under reduced light
Type: in vivo
Conditions: hypocotyl, 100 μM; for New length (cm) / New Length: three days; for New length (cm): trials 1, 2, 3 and SAM each with own DMSO control; for New Length: in cm
From the text: Arabidopsis thaliana wild-type seeds were from laboratory stocks of Columbia (Col-0) and Landsberg erecta (Ler-0) accessions. Arabidopsis thaliana is a dicot. The mutants of gid1 (J. Griffiths, et al., Plant Cell, 2006, 18, 3399-3414) were obtained from Dr. Steve Thomas (Rothamsted Research, UK) and were in a Col-0 background, whilst the della quintuple mutant (S. H. Feng et al. Nature, 2008, 451: 475-479) and ga1-5 (I. Fridborg et al. Plant Cell, 1999, 11: 1019-1031) were in a Ler-0 background and was obtained from the Nottingham Arabidopsis Stock Centre (NASC). The A. thaliana line expressing RGA-GFP (A. L. Silverstone et al. The Plant Cell, 2001, 13: 1555-1565), Col-0 background was obtained from Prof. Keith Lindsey (Durham University, UK). Seeds were plated out 1×MS medium pH 5.8 (T. Murashige and F. Skoog (1962) Physiologia Plantarum 15: 473-497) in petri dishes with a concentration of either 0.8% or 1.2% (w/v) phytoagar for root and hypocotyl measurements, respectively. After sowing seeds were stratified on plates at 4° C. for a minimum of 48 h to achieve synchronous germination. Seedlings were grown for either 7 or 2 days for root and hypocotyl measurements, respectively, prior to treatment with chemicals. For hypocotyl measurements, seeds were sown on nylon mesh (acid resistant monofilament nylon filter mesh fabric; GZ, model number H20M). Seedling were grown in a Percival (CU-36L5D, CLF plant climatics, Emersacker, Germany) with a photoperiod of 16/8 h with a light intensity of either 150 μmol m^2 s^−1 or 50 μmol m^2 s^−1 for root and hypocotyl measurements, respectively, and a temperature of 20±1° C.
After growing as described above seedlings for root assays were transferred to 1.2% (w/v) agar plates containing each chemical at a final concentration of 100 μM (the addition of the chemicals was performed when media had cooled to 50° C. after autoclaving), with an equivalent concentration of DMSO as control. At this stage the positions of the root tips were marked on the petri dish. The plants were subsequently grown vertically and after a further 5 days images of the plates were scanned and the root growth that occurred during the 5 days on chemicals was measured using ImageJ software. 18 seedlings were measured for each treatment. For hypocotyl measurements the assay performed was adapted from de Lucas et al. (2008, supra). After growing seedlings as described above, the nylon mesh was transferred across to the plates containing chemical. The plants were then placed in vertical orientation for three days under reduced light intensity (by covering plates with 2 layers of 80 g·m^2 white paper) before the plates were scanned. The measurement of hypocotyl was done using ImageJ software. At least 15 seedlings were measured for each plate.
To determine the mechanism of A1 action via the GA/DELLA signaling pathway, the response of A1 in a series of GA synthesis/signalling mutants was investigated. For these assays the focus was on hypocotyl growth, because it is well established that DELLA can inhibit the binding of PIFs to their target promoter leading to a reduction in GA-regulated hypocotyl growth (A. Castillon, H. Shen and E. Huq (2007) Trends in Plant Science, 12: 514-521.; de Lucas et al. 2008, supra; S. H. Feng et al. 2008, supra. To establish the use of A1 in this assay, hypocotyl growth was first tested by growing the seedlings on agar plates containing A1, with GA and PAC used as positive and negative controls, respectively, for three days in reduced light conditions to achieve a balance between maximum and minimum hypocotyl growth. […] Having established the hypocotyl assay, DELLA-dependence of the A1 effect was then confirmed genetically. To test this, a mutant line that lacks all DELLA (GAI, RGA, RGL1, RGL2 and RGL3) function was used.
The effect of additional compounds on hypocotyl growth was investigated using the same methods as described above (100 μM of each compound was used). […]

[1] = relative to the DMSO control of the same trial

Compound	New length (cm)	Relative growth (cm) [1]	New Length	Relative growth (cm) (relative to DMSO control)
CCOCCOc1ccc2ccccc2c1S(=O)(=O)NCCN.Cl [JAR144, N-(2′-aminoethyl)-2-(2″-ethoxyethoxy)naphthalene-1-sulfonamide Hydrogen Chloride]	0.6007	0.4927	–	–
NCCNS(=O)(=O)c1cccc2c(Cl)cccc12 [JAR482, N-(2′-aminoethyl)-5-chloronaphthalene-1-sulfonamide Hydrochloride]	–	–	0.5888	–
CCCCCCOc1ccc(S(=O)(=O)NCCN)cc1.Cl [JAR72, N-(2′-aminoethyl)-4-hexoxybenzene-1-sulfonamide Hydrogen Chloride]	0.195	−0.1909	–	–
CNCCNS(=O)(=O)c1cccc2ccccc12 [JAR493, N-[2′-(methylamino)ethyl]naphthalene-1-sulfonamide Hydrochloride]	–	–	0.897	0.3085
Cl.NCCNS(=O)(=O)c1ccc(-c2ccccc2)cc1 [JAR479, N-(2′-aminoethyl)-[1,1″-biphenyl]-4-sulfonamide Hydrochloride]	–	–	0.7771	0.1335
NCCNS(=O)(=O)c1cccc2cccnc12 [JAR13, N-(2′-aminoethyl)quinoline-8-sulfonamide]	0.212	−0.09787	–	–
NCCNS(=O)(=O)c1cccc(F)c1 [JAR478, N-(2-aminoethyl)-3-fluorobenzene-1-sulfonamide Hydrochloride]	–	–	0.8424	0.2289
CCOCCOc1ccc(S(=O)(=O)NCCN)c2ccccc12.Cl [JAR145, N-(2′-aminoethyl)-4-(2″-ethoxyethoxy)naphthalene-1-sulfonamide Hydrogen Chloride]	0.6424	0.5965	–	–
CCCc1ccc(S(=O)(=O)NCCN)cc1 [JAR489, N-(2-aminoethyl)-4-propylbenzene-1-sulfonamide]	–	–	0.9133	0.3323
C=CCN(CCN)S(=O)(=O)c1cccc2ccccc12.Cl [SAM1, N-(2′-aminolethyl)-N-(prop-2″-en-1′-yl)naphthalene-1-sulfonamide Hydrogen Chloride]	0.193	−0.0203	–	–
CCOCCOc1c(Cl)cc(S(=O)(=O)NCCN)c2ccccc12.Cl [JAR141, N-(2-azaniumylethyl)-3-chloro-4-(2-ethoxyethoxy)naphthalene-1-sulfonamide Chloride]	0.4387	0.09026	–	–
COc1ccc(S(=O)(=O)NCCN)cc1.Cl [JAR71, N-(2′-aminoethyl)-4-methoxybenzene-1-sulfonamide Hydrogen Chloride]	0.331	0.3734	–	–
CCCCCCOc1ccccc1S(=O)(=O)NCCN.Cl [JAR73, N-(2′-aminoethyl)-2-hexoxybenzene-1-sulfonamide Hydrogen Chloride]	0.202	−0.1618	–	–
Cl.NCCNS(=O)(=O)c1cccc2ncccc12 [JAR30, N-(2′-aminoethyl)-quinoline-5-sulfonamide Hydrogen Chloride]	0.333	0.417	–	–
COc1cccc(S(=O)(=O)NCCN)c1.Cl [JAR490, N-(2′-aminoethyl)-3-methoxybenzene-1-sulfonamide Hydrochloride]	–	–	0.8299	0.2107
Cl.NCCNS(=O)(=O)c1ccc2c3c(cccc13)C(=O)N2 [JAR67, N-(2′-aminoethyl)-1,8-naphtholactam-5-sulfonamide Hydrogen Chloride]	0.187	−0.2241	–	–

Compound	New length (cm)	Relative growth (cm) [1]	New Length	Relative growth (cm) (relative to DMSO control)
NCCCNS(=O)(=O)c1cccc2ccccc12 [JAR481, N-(3′-aminopropyl)naphthalene-1-sulfonamide Hydrochloride]	–	–	0.8072	0.1775
NCCNS(=O)(=O)c1ccccc1F [JAR480, N-(2′-aminoethyl)-2-fluorobenzene-1-sulfonamide Hydrochloride]	–	–	0.8424	0.2289
CCOC(=O)C(C)N(CCN)S(=O)(=O)c1cccc2ccccc12.Cl (centres unmarked) [SAM4, ethyl 2-[N-(2-azaniumylethyl)naphthalene-1-sulfonamido]propanoate Chloride]	0.228	0.1574	–	–
COc1ccccc1S(=O)(=O)NCCN.Cl [JAR69, N-(2′-aminoethyl)-2-methoxybenzene-1-sulfonamide Hydrogen Chloride]	0.316	0.3112	–	–
Cl.NCCNS(=O)(=O)c1cccc2cnccc12 [JAR32, N-(2′-aminoethyl)isoquinoline-5-sulfonamide Hydrogen Chloride]	0.202	–	–	–
CC(C)(C)c1ccc(S(=O)(=O)NCCN)cc1 [JAR484, N-(2′-aminoethyl)-4-tent-butylbenzene-1-sulfonamide Hydrochloride]	–	–	0.8713	0.271
CNc1ccc(S(=O)(=O)NCCN)c2nonc12.Cl [JAR143, 7-(methylamino)-N-(2′-aminoethyl)-2,1,3-benzoxadiazole-4-sulfonamide Hydrogen Chloride]	0.2847	−0.2925	–	–
COc1ccc(S(=O)(=O)NCCN)c2ccccc12.Cl [JAR33, N-(2′-aminoethyl)-4-methoxynaphthalene-1-sulfonamide Hydrogen Chloride]	0.2986	0.2705	–	–
Cl.NCCN(Cc1ccccc1)S(=O)(=O)c1cccc2ccccc12 [SAM2, N-(2′-aminoethyl)-N-benzylnaphthalene-1-sulfonamide Hydrogen Chloride]	0.191	−0.03046	–	–
CCCCCOc1ccc2ccccc2c1S(=O)(=O)NCCN.Cl [JAR68, N-(2′-aminoethyl)-2-pentoxynaphthalene-1-sulfonamide Hydrogen Chloride]	0.197	−0.1826	–	–
COc1ccc2ccccc2c1S(=O)(=O)NCCN.Cl [JAR36, N-(2′-aminoethyl)-2-methoxynaphthalene-1-sulfonamide Hydrogen Chloride]	0.329	0.4	–	–
NCCNS(=O)(=O)c1ccc([N+](=O)[O-])cc1 [JAR483, N-(2′-aminoethyl)-4-nitrobenzene-1-sulfonamide Hydrochloride]	–	–	0.8707	0.2701
Cc1ccc(S(=O)(=O)NCCN)cc1.Cl [JAR142, 4-methyl-N-(2′-aminoethyl)benzene-1-sulfonamide Hydrogen Chloride]	0.5868	0.4584	–	–
CN(CCN)S(=O)(=O)c1cccc2ccccc12 [JAR491, N-(2′-aminoethyl)-N-methylnaphthalene-1-sulfonamide]	–	–	0.8285	0.2085
Cl.NCCNS(=O)(=O)c1cccc2ccncc12 [JAR31, N-(2′-aminoethyl)isoquinoline-8-sulfonamide Hydrogen Chloride]	0.274	0.166	–	–
Cl.NCCNS(=O)(=O)C1CCCCC1 [JAR488, N-(2′-aminoethyl)cyclohexanesulfonamide Hydrochloride]	–	–	0.668	−0.02555
